Data on 22 molecules can be found in patent publication US20090137499A1, “BENZYLPHENYL GLUCOPYRANOSIDE DERIVATIVE” (priority 2006, published 2009).

In this test the target is T1, human SGLT2 (Homo sapiens, UniProt P31639).
T1 construct: expressed in transfected cells
T1 sequence (P31639 1-672): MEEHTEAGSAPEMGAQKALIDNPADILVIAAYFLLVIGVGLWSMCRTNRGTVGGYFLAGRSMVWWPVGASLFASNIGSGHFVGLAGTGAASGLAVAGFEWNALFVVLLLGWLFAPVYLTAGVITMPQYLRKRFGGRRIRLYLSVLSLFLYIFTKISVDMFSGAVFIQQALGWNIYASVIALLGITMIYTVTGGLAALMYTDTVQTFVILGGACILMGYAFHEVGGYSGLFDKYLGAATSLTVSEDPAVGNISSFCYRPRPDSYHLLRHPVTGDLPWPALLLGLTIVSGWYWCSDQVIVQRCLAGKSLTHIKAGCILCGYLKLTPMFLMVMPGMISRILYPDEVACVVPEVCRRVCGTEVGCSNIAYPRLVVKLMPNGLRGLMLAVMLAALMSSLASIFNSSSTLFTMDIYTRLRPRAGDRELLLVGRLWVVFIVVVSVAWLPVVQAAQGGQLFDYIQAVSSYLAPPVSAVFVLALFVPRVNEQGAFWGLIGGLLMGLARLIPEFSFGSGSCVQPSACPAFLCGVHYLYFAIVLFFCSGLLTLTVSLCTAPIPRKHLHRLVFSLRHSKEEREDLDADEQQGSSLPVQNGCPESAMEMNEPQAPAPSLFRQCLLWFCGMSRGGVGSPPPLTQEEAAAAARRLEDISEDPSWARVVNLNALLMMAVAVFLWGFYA
Nature of the test: Determination of SGLT2 inhibiting activity using human SGLT2 expressing cell ([14C]-α-methyl-D-glucopyranoside uptake). In kind it is cell-based. To be noted: HEK-SGLT2 cells, 1 mM [14C]-α-methyl-D-glucopyranoside, 37° C., 30 min. How it is done:
Determination of SGLT2 Inhibiting Activity Using Human SGLT2 Expressing Cell
1) Preparation of Vector Expressing Human SGLT2 cDNA in Animal Cell
Amplification was performed by PCR using human SGLT2 cDNA clone (Origene: Clone Number, TC303267; GenBank accession number, NM 003041) as a template. The sense oligonucleotide primer for PCR was 5′-[…]-3′ (Primer 3: SEQ ID NO: 3 in the sequence listing),
and the antisense oligonucleotide primer was 5′-[…]-3′ (Primer 4: SEQ ID NO: 4 in the sequence listing). The PCR product was subjected to agarose electrophoresis, then a target DNA fragment was recovered from a single band corresponding to 2037 bases, digested with restriction enzymes HindIII and XhoI, and introduced into the HindIII/XhoI site of vector pCMV-Script (Stratagene) to obtain SGLT2 expressing plasmid pCMV-SGLT2. A HindIII/XhoI fragment was excised from pCMV-SGLT2 and introduced into the BamHI/XhoI site of pENTR1A (Gateway, Invitrogen) to prepare pENTR-SGLT2. Retrovirus vector pLPCX (Clontech) into which Gateway Vector Conversion System Cassette A (Invitrogen) was introduced was used as the destination plasmid to prepare SGLT2 expressing retrovirus vector pLPCX-SGLT2.
2) Establishment of Human SGLT2 Expressing Cell
The retrovirus pLPCX-SGLT2 obtained in 1) was transfected into integrin αvβ3 expressing HEK-293 cells, the cells were treated with antibiotic G418 (brand name, Geneticin: Invitrogen) and puromycin (Clontech) to obtain HEK-SGLT2 cells stably expressing the target vector having resistance. The stably expressing cells were cultured and maintained in DMEM medium containing […] G418, […] puromycin, 3 mM KGT-1075, and 10% FBS.
3) Determination of SGLT2 Inhibiting Activity
HEK-SGLT2 cells were suspended at a density of 10^6 cells/mL in DMEM medium containing 250 mg/mil G418, 1 mg/ml puromycin, and 10% FBS, and 100 μL was seeded in each well of a type 1 collagen-coated 96-well culture plate (Corning). On the following day, the medium was replaced with a sugar uptake buffer (10 mM HEPES [pH 7.5], 5 mM Tris-HCl [pH 7.5], 140 mM NaCl, 2 mM KCl, 1 mM CaCl2, 1 mM MgCl2), and the cells were cultured with 1 mM [^14C]-α-methyl-D-glucopyranoside (0.1 mCi) and a test compound at 37° C. for 30 min, and then washed 3 times with a washing buffer (10 mM HEPES (pH 7.5), 5 mM Tris-HCl (pH 7.5), 140 mM choline chloride, 2 mM KCl, 1 mM CaCl2, 1 mM MgCl2). 100 μL of liquid scintillation cocktail (brand name, Supermix: Perkin-Elmer) was added to each well of the 96-well plate and stirred for 10 min, and then radioactivity was determined with micro β (Perkin-Elmer), a type of liquid scintillation counter. The value obtained by deducting the radioactivity in the presence of an excess amount of an SGLT2 inhibiting compound as the background from each measured value was taken as the sugar uptake activity, the inhibition rate (%) was calculated from the control sugar uptake activity obtained without using a test compound and the sugar uptake activity obtained using a test compound having a predetermined concentration, and the concentrations of the test compound at which the sugar uptake activity was inhibited by 50% were assessed.

Turning to `COc1ccc(Cc2ccc(CO)cc2O[C@@H]2O[C@H]([C@@H](C)O)[C@@H](O)[C@H](O)[C@H]2O)cc1` [Example 9, 2-(4-Methoxybenzyl)-5-hydroxymethylphenyl 7-deoxy-D-glycero-β-D-gluco-heptopyranoside], the concentration for half-maximal inhibition (IC50) – broadly, the point on the concentration scale where inhibition reaches its midpoint – amounted to 9.4 nM. `COc1ccc(Cc2cc(CO)cnc2O[C@@H]2O[C@H]([C@@H](C)O)[C@@H](O)[C@H](O)[C@H]2O)cc1` [Example 38, 3-(4-Methoxybenzyl)-5-hydroxymethylpyridin-2-yl 7-deoxy-D-glycero-β-D-gluco-heptopyranoside] had an IC50 of 17 nM. The value for `CCc1ccc(Cc2ccc(N)cc2O[C@@H]2O[C@H](C(C)O)[C@@](C)(O)[C@H](O)[C@H]2O)cc1` (stereo partly drawn) [Example 41, 5-Amino-2-(4-ethylbenzyl)phenyl 4-C-methyl-7-deoxy-glycero-β-D-gluco-heptapyranoside] was 14 nM. In the case of `COc1ccc(Cc2c(Cl)cccc2O[C@@H]2O[C@H]([C@@H](C)O)[C@@H](O)[C@H](O)[C@H]2O)cc1` [Example 42, 3-Chloro-2-(4-methoxybenzyl)phenyl 7-deoxy-D-glycero-β-D-gluco-heptopyranoside] it was 18 nM.

For the molecule `COc1ccc(Cc2c(Cl)cc(C)cc2O[C@@H]2O[C@H]([C@@H](C)O)[C@@H](O)[C@H](O)[C@H]2O)cc1` [Example 43, 3-Chloro-5-methyl-2-(4-methoxybenzyl)phenyl 7-deoxy-D-glycero-β-D-gluco-heptopyranoside], the IC50 is 61 nM.

`COc1ccc(Cc2c(Cl)cc(CO)cc2O[C@@H]2O[C@H]([C@@H](C)O)[C@@H](O)[C@H](O)[C@H]2O)cc1` [Example 44, 3-Chloro-5-hydroxymethyl-2-(4-methoxybenzyl)phenyl 7-deoxy-D-glycero-β-D-gluco-heptopyranoside] yielded an IC50 of 10 nM. Against the preceding molecule, the IC50 is about 6.1-fold lower. The value for `CCOc1ccc(Cc2c(Cl)cc(CO)cc2O[C@@H]2O[C@H]([C@@H](C)O)[C@@H](O)[C@H](O)[C@H]2O)cc1` [Example 45, 3-Chloro-2-(4-ethoxybenzyl)-5-hydroxymethyl-phenyl 7-deoxy-D-glycero-β-D-gluco-heptopyranoside] was 45 nM; that for `CCOc1ccc(Cc2c(F)cc(CO)cc2O[C@@H]2O[C@H]([C@@H](C)O)[C@@H](O)[C@H](O)[C@H]2O)cc1` [Example 46, 2-(4-Ethoxybenzyl)-3-fluoro-5-hydroxymethyl-phenyl 7-deoxy-D-glycero-β-D-gluco-heptopyranoside] was 16 nM. Take `CCc1ccc(Cc2c(F)cc(CO)cc2O[C@@H]2O[C@H]([C@@H](C)O)[C@@H](O)[C@H](O)[C@H]2O)cc1` [Example 47, 2-(4-Ethylbenzyl)-3-fluoro-5-hydroxymethyl-phenyl 7-deoxy-D-glycero-β-D-gluco-heptopyranoside]: the IC50 amounted to 38 nM. The value for `COc1ccc(Cc2c(Cl)cc(CO)cc2O[C@@H]2O[C@H]([C@H](C)O)[C@@H](O)[C@H](O)[C@H]2O)cc1` [Example 57, 3-Chloro-5-hydroxymethyl-2-(4-methoxybenzyl)phenyl 7-deoxy-L-glycero-β-D-gluco-heptopyranoside] was 11 nM. In turn, `C[C@@H](O)[C@H]1O[C@@H](Oc2cc(CO)ccc2Cc2ccc(OC3CC3)cc2)[C@H](O)[C@@H](O)[C@@H]1O` [Example 60, 2-(4-Cyclopropyloxybenzyl)-5-hydroxymethylphenyl 7-deoxy-D-glycero-β-D-gluco-heptopyranoside] showed an IC50 of 12 nM.

With `C[C@@H](O)[C@H]1O[C@@H](Oc2cc(CO)ccc2Cc2ccc(C3CC3)cc2)[C@H](O)[C@@H](O)[C@@H]1O` [Example 62, 2-(4-Cyclopropylbenzyl)-5-hydroxymethylphenyl 7-deoxy-D-glycero-β-D-gluco-heptopyranoside], 32 nM corresponded to half-maximal inhibition (IC50). Regarding `C[C@@H](O)[C@H]1O[C@@H](Oc2cc(CO)cc(F)c2Cc2ccc(OC3CC3)cc2)[C@H](O)[C@@H](O)[C@@H]1O` [Example 63, 2-(4-Cyclopropoxybenzyl)-3-fluoro-5-hydroxymethyl-phenyl 7-deoxy-D-glycero-β-D-gluco-heptopyranoside], the IC50 worked out at 34 nM. The value for `CSc1ccc(Cc2ccc(CO)cc2O[C@@H]2O[C@H]([C@@H](C)O)[C@@H](O)[C@H](O)[C@H]2O)cc1` [Example 66, 5-Hydroxymethyl-2-(4-methylsulfanylbenzyl)phenyl 7-deoxy-D-glycero-β-D-gluco-heptopyranoside] was 23 nM; that for `CCc1ccc(Cc2ccc(CCO)cc2O[C@@H]2O[C@H]([C@@H](C)O)[C@@H](O)[C@H](O)[C@H]2O)cc1` [Example 67, 2-(4-Ethylbenzyl)-5-(2-hydroxyethyl)phenyl 7-deoxy-D-glycero-β-D-gluco-heptopyranoside] was 30 nM. In the case of `C[C@@H](O)[C@H]1O[C@@H](Oc2cc(CO)ccc2Cc2ccc(CCCO)cc2)[C@H](O)[C@@H](O)[C@@H]1O` [Example 68, 5-Hydroxymethyl-2-[4-(3-hydroxypropyl)benzyl]phenyl 7-deoxy-D-glycero-β-D-gluco-heptopyranoside], half-maximal inhibition (IC50) required 12 nM. For `COc1ccc(Cc2c(C)cc(C)cc2O[C@@H]2O[C@H]([C@@H](C)O)[C@@H](O)[C@H](O)[C@H]2O)cc1F` [Example 69, 2-(3-Fluoro-4-methoxybenzyl)-3,5-dimethylphenyl 7-deoxy-D-glycero-β-D-gluco-heptopyranoside], the IC50 came to 40 nM. As to `Cc1cc(C)c(Cc2ccc(CCO)cc2)c(O[C@@H]2O[C@H]([C@@H](C)O)[C@@H](O)[C@H](O)[C@H]2O)c1` [Example 70, 2-[4-(2-Hydroxyethyl)benzyl]-3,5-dimethylphenyl 7-deoxy-D-glycero-β-D-gluco-heptopyranoside], half-maximal inhibition (IC50) was put at 40 nM. The value for `CCCOc1ccc(Cc2c(F)cc(CO)cc2O[C@@H]2O[C@H]([C@@H](C)O)[C@@H](O)[C@H](O)[C@H]2O)cc1` [Example 74, 3-Fluoro-5-hydroxymethyl-2-(4-propoxybenzyl)phenyl 7-deoxy-D-glycero-β-D-gluco-heptopyranoside] was 47 nM; that for `CC(C)Oc1ccc(Cc2c(F)cc(CO)cc2O[C@@H]2O[C@H]([C@@H](C)O)[C@@H](O)[C@H](O)[C@H]2O)cc1` [Example 75, 3-Fluoro-5-hydroxymethyl-2-(4-isopropoxybenzyl)phenyl 7-deoxy-D-glycero-β-D-gluco-heptopyranoside] was 38 nM. The value for `COc1ccc(Cc2c(C)cc(C)cc2O[C@@H]2O[C@H]([C@@H](C)O)[C@@H](O)[C@H](O)[C@H]2O)cc1` [Example 77, 3,5-Dimethyl-2-(4-methoxybenzyl)phenyl 7-deoxy-D-glycero-β-D-gluco-heptopyranoside] was 25 nM; that for `COc1ccc(Cc2ccc(CO)cc2O[C@@H]2O[C@H]([C@@H](C)O)[C@@H](O)[C@H](O)[C@H]2O)cc1F` [Example 78, 2-(3-Fluoro-4-methoxybenzyl)-5-hydroxymethylphenyl 7-deoxy-D-glycero-β-D-gluco-heptopyranoside] was 11 nM.
